The source made the active and inactive calls. No cut-off for these calls is given here.
Experiments:
CWR22R [1] = test: Growth inhibition of human 22Rv1 cells incubated for 6 to 7 days by MTS assay; format: functional; details: time 6-7 day
LNCaP [2] = test: Growth inhibition of human LNCaP cells incubated for 6 to 7 days by MTS assay; format: functional; details: time 6-7 day
[3] = target: T1, Amine oxidase [flavin-containing] A (Homo sapiens, UniProt P21397); test: Inhibition of MAO-A (unknown origin)
T1 sequence (P21397 whole entry): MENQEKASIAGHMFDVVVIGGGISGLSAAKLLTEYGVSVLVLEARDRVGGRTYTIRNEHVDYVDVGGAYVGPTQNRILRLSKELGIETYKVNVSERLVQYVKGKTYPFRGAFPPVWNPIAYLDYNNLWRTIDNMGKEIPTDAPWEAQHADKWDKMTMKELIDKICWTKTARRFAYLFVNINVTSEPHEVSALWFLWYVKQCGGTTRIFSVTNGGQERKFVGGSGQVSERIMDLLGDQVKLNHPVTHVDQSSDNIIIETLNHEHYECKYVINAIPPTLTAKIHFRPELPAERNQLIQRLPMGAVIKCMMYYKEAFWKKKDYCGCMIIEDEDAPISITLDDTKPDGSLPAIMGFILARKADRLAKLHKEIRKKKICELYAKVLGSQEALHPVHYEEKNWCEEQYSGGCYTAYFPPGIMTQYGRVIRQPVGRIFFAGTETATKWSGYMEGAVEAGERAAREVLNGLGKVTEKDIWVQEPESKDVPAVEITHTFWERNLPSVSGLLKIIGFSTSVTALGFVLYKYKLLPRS

[4] = target: T2, Lysine-specific histone demethylase 1A (Homo sapiens, UniProt O60341); test: Inhibition of LSD1 in human LNCaP cells assessed as upregulation of H3K4me2 expression at 1 to 5 uM incubated for 5 days by Western blotting analysis; format: cell-based; details: dose 1-5 µM, time 5.0 day
CWR22R [5] = test: Induction of apoptosis in human 22Rv1 cells at 10 uM incubated for 5 days by Annexin V-FITC/PI staining based flow cytometric analysis (reference value: 8.97 %); format: functional; details: time 5 day
LNCaP [6] = test: Induction of apoptosis in human LNCaP cells at 1 to 10 uM incubated for 5 days by Annexin V-FITC/PI staining based flow cytometric analysis; format: functional, cell-based; details: dose 1-10 µM, time 5.0 day
PC-3 = test: Antimigratory activity in human PC-3 cells assessed as upregulation of E-cadherin expression at 3 to 10 uM incubated for 48 hrs by Western blotting analysis; format: functional, cell-based; details: dose 3-10 µM
LNCaP [7] = test: Antimigratory activity in human LNCaP cells assessed as downregulation of N-cadherin expression at 3 to 10 uM incubated for 48 hrs by Western blotting analysis; format: functional, cell-based; details: dose 3-10 µM
[8] = Metabolic stability in Sprague-Dawley rat hepatocyte assessed as compound remaining at 20 uM incubated for 30 mins by HPLC-MS/MS analysis; format: ADME, cell-based; details: hepatocytes, read-out: Stability
[9] = Metabolic stability in Sprague-Dawley rat hepatocyte assessed as compound remaining at 20 uM incubated for 60 mins by HPLC-MS/MS analysis; format: ADME, cell-based; details: hepatocytes, read-out: Stability
[10] = Metabolic stability in Sprague-Dawley rat hepatocyte assessed as compound remaining at 20 uM incubated for 180 mins by HPLC-MS/MS analysis; format: ADME, cell-based; details: hepatocytes, read-out: Stability
[11] = Metabolic stability in Sprague-Dawley rat hepatocyte assessed as intrinsic clearance at 20 uM incubated for 60 mins by HPLC-MS/MS analysis; format: ADME, cell-based; details: hepatocytes, 1 h
[12] = Half life in BALB/c mouse at 50 mg/kg,iv measured upto 24 hrs by HPLC-MS/MS analysis; format: ADME, organism-based; details: in vivo
[13] = Half life in BALB/c mouse at 50 mg/kg,ip measured upto 24 hrs by HPLC-MS/MS analysis; format: ADME, organism-based; details: in vivo
[14] = Tmax in BALB/c mouse at 50 mg/kg,po measured upto 24 hrs by HPLC-MS/MS analysis; format: ADME, organism-based; details: in vivo
[15] = AUC (0 to infinity) in BALB/c mouse at 50 mg/kg,iv measured upto 24 hrs by HPLC-MS/MS analysis; format: ADME, organism-based; details: in vivo
[16] = AUC (0 to infinity) in BALB/c mouse at 50 mg/kg,ip measured upto 24 hrs by HPLC-MS/MS analysis; format: ADME, organism-based; details: in vivo
[17] = Clearance in BALB/c mouse at 50 mg/kg,ip measured upto 24 hrs by HPLC-MS/MS analysis; format: ADME, organism-based; details: in vivo
[18] = Oral bioavailability in BALB/c mouse at 50 mg/kg measured upto 24 hrs by HPLC-MS/MS analysis; format: ADME, organism-based; details: in vivo
CWR22R [19] = test: Antitumor activity against human 22Rv1 cells xenografted in BALB/c mouse assessed as tumor growth inhibition at 80 mg/kg,ip administrated daily for 31 days relative to control; format: functional; details: 22Rv1, 744 h, time 31 day, read-out: TGI
CWR22R [20] = test: Antitumor activity against human 22Rv1 cells xenografted in BALB/c mouse assessed as reduction in Ki67 expression at 80 mg/kg,ip administrated daily for 31 days by immunofluorescence analysis; format: functional, organism-based; details: time 31.0 day
[21] = Toxicity in BALB/c mouse xenografted with human 22Rv1 cells assessed as liver morphological change at 80 mg/kg,ip administrated daily for 31 days; format: organism-based, CWR22R; details: in vivo, 744 h, time 31 day
[22] = Toxicity in BALB/c mouse xenografted with human 22Rv1 cells assessed as spleen morphological change at 80 mg/kg,ip administrated daily for 31 days; format: organism-based, CWR22R; details: in vivo, 744 h, time 31 day
[23] = target: T2, Lysine-specific histone demethylase 1A; test: Inhibition of LSD1 in human 22Rv1 cells assessed as downregulation of AR expression incubated for 48 hrs by Western blotting analysis; format: cell-based
CWR22R [24] = test: Synergistic antitumor activity against human 22Rv1 cells xenografted in BALB/c mouse assessed as reduction in tumor growth at 80 mg/kg,ip administrated daily for 31 days in presence of enzalutamide relative to control; format: functional, organism-based; details: time 31.0 day
CWR22R [25] = test: Synergistic antiproliferative activity against human 22Rv1 cells assessed as inhibition of cell growth at 6.25 to 100 uM incubated for 6 to 7 days in presence of enzalutamide by MTS assay; format: functional, cell-based; details: dose 6.25-100 µM, time 6-7 day
MV4-11 = test: Antiproliferative activity against human MV4-11 cells assessed as inhibition of cell growth incubated for 6 to 7 days by MTS assay; format: functional, cell-based; details: time 6-7 day
SU-DHL-2 = test: Antiproliferative activity against human SU-DHL-2 cells assessed as inhibition of cell growth incubated for 6 to 7 days by MTS assay; format: functional, cell-based; details: time 6-7 day
SUD4 = test: Antiproliferative activity against human SU-DHL-4 cells assessed as inhibition of cell growth incubated for 6 to 7 days by MTS assay; format: functional, cell-based; details: time 6-7 day
A549 = test: Antiproliferative activity against human A549 cells assessed as inhibition of cell growth incubated for 6 to 7 days by MTS assay; format: functional, cell-based; details: time 6-7 day
NCI-H292 = test: Antiproliferative activity against human NCI-H292 cells assessed as inhibition of cell growth incubated for 6 to 7 days by MTS assay; format: functional, cell-based; details: time 6-7 day
BEAS-2B = test: Cytotoxicity against human BEAS-2B cells incubated for 6 to 7 days by MTS assay; format: toxicity, cell-based; details: time 6-7 day
[26] = Cytotoxicity against human HPNE cells incubated for 6 to 7 days by MTS assay; format: toxicity, cell-based; details: time 6-7 day
CWR22R [27] = details: Homo sapiens, dose 80.0 mg/kg, route ip, time 31.0 day

CCN(c1cc(-c2ccc([C@@H]3C[C@H]3N(CC3CCOCC3)C(=O)OC(C)(C)C)cc2)cc(C(=O)NCc2c(C)cc(C)[nH]c2=O)c1C)C1CCOCC1 (racemic)
GI50 (CWR22R [1]): 3.96 µM
GI50 (LNCaP [2]): 1630 nM
IC50 [3]: 1540 nM
inhibition [4]: Active
Activity (CWR22R [5]): 50.06%
Activity (LNCaP [6]): Active
Activity (PC-3): Active
Activity (LNCaP [7]): Active
remaining at 0.5 h, 20 µM [8]: 93%
remaining at 1 h, 20 µM [9]: 84.3%
remaining at 3 h, 20 µM [10]: 70%
CLH [11]: 0.004 mL/min/mg
half-life [12]: 150 min
half-life [13]: 210 min
Tmax [14]: 1 h
AUC(0-inf) [15]: 126 µg·h/mL
AUC(0-inf) [16]: 112 µg·h/mL
CL/F [17]: 8.33 mL/min/kg
bioavailability [18]: 32.9%
inhibition in vivo at 80 mg/kg (CWR22R [19]): 52.2%
Activity (CWR22R [20]): Active
Activity [21]: Non-Toxic
Activity [22]: Non-Toxic
inhibition [23]: Dose-Dependent Effect
Activity (CWR22R [24]): Active
Activity (CWR22R [25]): Active
Activity (MV4-11): Active
Activity (SU-DHL-2): Active
Activity (SUD4): Active
Activity (A549): Active
Activity (NCI-H292): Active
Activity (BEAS-2B): Non-Toxic
Activity [26]: Non-Toxic
inhibition (CWR22R [27]): Active

Reference: ChEMBL document CHEMBL5584353, “Design, Synthesis, and Biological Evaluation of Potent EZH2/LSD1 Dual Inhibitors for Prostate Cancer” (J Med Chem, 2024)
